According to article PMC6689897, “Drugging an undruggable pocket on KRAS” (Proceedings of the National Academy of Sciences of the …, 2019):

Test system: KRAS
Test: Alpha Screen PPI assays, summary over KRAS interactions (SOS1, CRAF, PI3Kα)
Assay type: biochemical, human
Description: Using biochemical assays, we investigated whether 1 inhibited 3 of the 4 PPIs important for KRAS cycling (Fig. 5 A, i–iii). Namely, 1) GDP-KRAS interaction with the catalytic site of SOS ([33]), 2) GTP-KRAS interaction with the allosteric site of SOS ([34]), and 3) GTP-KRAS interaction with downstream effectors (CRAF and PI3Kα). We were unable to establish a biochemical assay for the fourth intervention point, namely, 4) GTP-KRAS interaction with its GAPs (Fig. 5 A, iv). As a reference compound for these assays, we used the KRAS^G12C-specific covalent inhibitor ARS-1620 ([35]). Compound 1 inhibited all 3 RAS cycle intervention points (1 to 3) in a dose-dependent manner (Fig. 5 B–E) in the range of 100 to 770 nM (SI Appendix, Table S6).
217 The coordinates and structure factors of the structures have been deposited at the
218 Protein Data Bank with the accession codes PDB Code 6GJ5, 6GJ6, 6GJ7, 6GJ8.
221 Measurements of various protein–protein interactions were performed using the Alpha
222 Screen technology developed by Perkin Elmer. Recombinant RAS proteins (H-, N-, K-
223 RAS variants; all KRAS variants are based on KRAS isoform 4B (uniprot id P01116-2);
224 KRAS (G12D) 1-169, N-terminal 6His-tag, C-terminal avi-tag was from Xtal
225 BioStructures, Inc., KRAS (G12C) 1-169, C-terminal avi-tag, biotinylated, mutations:
226 C51S, C80L, C118S, NRAS(wt) 1-172, C-terminal avi-tag, biotinylated; HRAS(wt) 1-
227 166, C-terminal avi-tag, biotinylated). Biotinylation was performed in vitro with
228 recombinant BirA biotin-protein ligase as recommended by the manufacturer (Avidity
229 LLC, Aurora, Colorado, USA). Interacting proteins such as SOS1 (564-1049, N-terminal
230 GST-tag, TEV cleavage site), cRaf (1-303, N-terminal GST-tag, TEV cleavage site) and
231 PI3KA- RBD (160-317, N-term-HIS_GST-tag) were expressed as glutathione S […]
245 for 60 min in the dark at room temperature. Single oxygen induced fluorescence was
246 measured at an Enspire multimode plate reader (Perkin Elmer) according to the
247 manufacturer’s recommendations. Data were analyzed using the GraphPad Prism data […]

| SMILES | activity in all GTP-dependent KRAS assays | IC50 (GDP-KRAS::SOS, GTP-KRAS::SOS, GTP-KRAS::effectors (CRAF, PI3Kα), read-out: inhibition of all 3 RAS cycle intervention points, range) [nM] |
| --- | --- | --- |
| C=CC(=O)N1CCN(c2ncnc3c(F)c(-c4c(O)cccc4F)c(Cl)cc23)CC1 [ARS-1620, reference compound] | inactive |  |
| Cn1cnc(Cn2ccc3ccc(CNCc4[nH]c5ccccc5c4[C@H]4NC(=O)c5ccc(O)cc54)cc32)c1 [Compound 1] |  | 100 to 770 |
